The assay concerns the target T1, yeast NMT (Saccharomyces cerevisiae, UniProt P14743).
T1 construct: 11,000-fold purified preparation of yeast NMT; endogenous in cells; host or cells: yeast (enzyme purified from yeast, 11,000-fold)
T1 sequence (P14743 1-455): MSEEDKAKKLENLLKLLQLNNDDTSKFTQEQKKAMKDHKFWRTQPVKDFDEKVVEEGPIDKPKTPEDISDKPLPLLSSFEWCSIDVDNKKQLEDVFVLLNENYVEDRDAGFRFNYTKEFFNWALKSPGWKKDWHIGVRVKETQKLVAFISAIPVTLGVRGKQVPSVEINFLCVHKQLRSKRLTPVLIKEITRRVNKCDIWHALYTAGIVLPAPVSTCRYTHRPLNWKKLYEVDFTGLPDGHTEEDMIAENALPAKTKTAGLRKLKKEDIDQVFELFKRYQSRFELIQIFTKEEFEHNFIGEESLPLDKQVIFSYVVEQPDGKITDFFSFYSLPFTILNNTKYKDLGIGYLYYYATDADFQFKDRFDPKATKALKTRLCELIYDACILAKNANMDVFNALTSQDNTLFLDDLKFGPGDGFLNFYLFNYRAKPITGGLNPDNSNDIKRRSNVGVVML
Nature of the assay: kinetic characterisation of fatty acid analogs as yeast NMT substrates. Type of assay: biochemical. The source says:
Similar results were obtained using an 11,000-fold purified preparation of yeast NMT [Towler et al., Proc. Natl. Acad. Sci. USA 84, 2708-2712 (1987)].
Other illustrative examples of the oxy- and thio-substituted fatty acid analog substrate compounds of the invention were synthesized in Examples 6 to 14 and tested in Example 15 as substrates for the yeast NMT.
For these Examples, each analog synthesized is characterized by ^1 H and ^13 C NMR as well as mass spectroscopy. The analogs are then characterized kinetically as NMT substrates. Briefly, fatty acid analogs are converted to their CoA esters with Pseudomonas CoA ligase and incubated with the iodinated peptide GNAAS[^125 I]YRR and a source of NMT. […] The radiolabelled peptide is then used at concentrations which will lead to 50% enzyme saturation (i.e., at its Km) for the determination of fatty acid analog kinetic characteristics. Representative analogs with sulfur or oxygen in the backbone of the fatty acid chain serve as good substrates for NMT in vitro and will compete for incorporation of ^3 H labelled myri-state into yeast proteins in vivo. In addition, these analogs differ markedly in hydrophobicity from myri-state as measured both by C18 reverse phase HPLC elution profiles and by 2-octanol/water partition coefficients. The analog CH3 O(CH2)11 COOH, for example, partitions into water 20 fold better than myristate. It is believed that these analogs will be incorporated into mammalian acylproteins in vivo and that their incorporation into these proteins will drastically alter protein processing or targeting. It is further believed that the incorporation of fatty acid analogs of both myristate and palmitate into ester linked and phosphatidyl inositol glycan linked acylproteins will also dramatically alter their properties. Since many viral proteins and oncogenes are acylated, these compounds represent a new class of potential antiviral and antineoplastic agents.

Each structure is given as a SMILES string.

The term Km denotes the substrate concentration at which the rate is half of its maximum. Consider `CCCCCCCCCCCCCC(=O)O` [myristic acid, reference compound], for which the “Peptide Vm” value (peptide GNAAS[125I]YRR varied, fatty acid analog at 15 μM, myristate control = 100%) turned out to be 100%. For the same compound, the “Acyl CoA Vm” value (radiolabelled peptide at its Km, analog varied, myristate control = 100%) stood at 100%. Besides, the Km (radiolabelled peptide at its Km, analog varied, read-out: Acyl CoA Km) was determined as 0.6 µM.

The values above are taken from patent US5959145A, “Fatty acid analog enzyme substrates” (priority 1993, dated 1999).
